{
  "source": "patent US20160184459A1",
  "about": "“CANCER CELL SPECIFIC IMAGING PROBES AND METHODS OF USE” (THE RESEARCH FOUNDATION FOR THE STATE UNIVERSITY OF NEW YORK, priority 2013, published 2016)",
  "key": {"HCT116 xenograft tumor": {"tested_on": "HCT116 xenograft tumor", "test": "HCT116 mouse xenograft model", "type": "in vivo", "description": "(§1) FIG. 20. In vivo anticancer efficacy of BKAc-Puro. […] HCT116 cells were implanted subcutaneously into female nude mice. When the developed tumors reached 200 mm^3, animals were intraperitoneally injected by the indicated dose of the compound or vehicle control (DMSO). Tumor volume was estimated by the equation vol=(a×b^2)/2, where vol, a, and b represent volume, the length of the major axis, and the length of the minor axis, respectively. Arrows indicate the time points of treatment. (b) Body weight change during the treatment in a. Value is expressed in percent change compared to the day of the first treatment.\n(§2) FIG. 21. HCT116 cells were implanted subcutaneously into female nude mice. When palpable tumors reached 50-150 mm^3, animals were randomized and treated by the indicated dose of the compound or vehicle control (DMSO) via intraperitoneal injection. Tumor incidence is presented as number of mice developed tumor (volume >300 mm^3) after 2 weeks of daily treatment/number of mice treated. Tumor volume was estimated by the equation vol=(a×b^2)/2, where vol, a, and b represent volume, the length of the major axis, and the length of the minor axis, respectively.\n(§3) FIG. 29. In vivo anticancer efficacy of Boc-KAc-Puro. (a) Tumor growth in HCT116 xenograft model. Animals were treated with acidified saline control or Boc-KAc-Puro (50 or 150 mg/kg). Values are mean±s.d. (n=5 mice per group). *** P<0.001 compared to the control group. P=0.000716 (50 mg/kg), P=0.000349 (150 mg/kg) at 10 d. (b) Body weight change during the treatment in a and was monitored as a sign of general animal health. Values are mean±s.d. (c) Tumor growth in HT29 xenograft model. Animals were treated with acidified saline control or Boc-KAc-Puro (150 mg/kg). Values are mean±s.d. (n=5 mice per group). *** P<0.001 compared to the control group. P=0.000514 (150 mg/kg) at 10 d. (d) Body weight change during the treatment in c was monitored as a sign of general animal health. Values are mean±s.d. (e) Levels of Puro-incorporated proteins were monitored by immunoblotting. Animals bearing HT29 xenograft tumor were given daily intraperitoneal administration of the prodrug at 150 mg/kg/dose for 3 d, followed by preparation of tissue lysates. The lower panel (anti-α-Tubulin) served as a loading control.\nTo assess the in vivo efficacy of the compounds, mouse xenograft model using HCT116 colon cancer cells is used as an established evaluation method for the anticancer drugs against cancer (Cao, Z. A. et al. 2006). The growth inhibitory effects of the compounds on size-matched xenografts are examined by subcutaneous implantation of HCT116 cells into nude mice. HCT116 cells are injected subcutaneously and allowed to develop palpable tumors (50-150 mm^3) before initiation of drug administration. Mice (5-10 animals per group) are treated with the vehicle (DMSO or PBS) or the prodrugs by intraperitoneal administration. Dose ranges are determined by the dose escalation studies of the prodrugs. […] Relative tumor volume is calculated by dividing tumor volume by that on day 0 (the day of treatment initiation). […] Statistical significance of the data is evaluated by performing one-way ANOVA with post hoc Turkey's test to compare means (GraphPad Prism software). The efficacy of the compounds is further evaluated in a similar manner by using other cancer cell lines. […]"}, "[1]": {"tested_on": "Puro incorporation in tumors, muscle and kidney", "test": "Immunoblotting of Puro-labeled proteins in tissue lysates of HT29 xenograft mice", "type": "in vivo, mouse", "conditions": "150 mg/kg/dose daily intraperitoneal for 3 d", "experimental": "as §3, with “Animals bearing HT29 xenograft tumor were given daily intraperitoneal administration of the prodrug at 150 mg/kg/dose for 3 d, followed by preparation of tissue lysates. The lower panel (anti-α-Tubulin) served as a loading control.” left out\nCultured cells or tissue samples were sonicated in RIPA lysis buffer (1% NP-40, 0.1% SDS, 50 mM Tris-HCl pH 7.4, 150 mM NaCl, 0.5% sodium deoxycholate, 1 mM EDTA) supplemented with PMSF and protease inhibitor cocktail (Roche) on ice followed by clarification. […] Proteins of interest were detected with anti-mouse secondary antibody by chemiluminescence (ECL Kit, GE Healthcare Life Sciences). […]"}, "[2]": {"test": "Toxicity / body weight change in mice", "type": "in vivo, mouse", "description": "as §1, §2\nFIG. 22. Dose escalation toxicity study. Female nude mice (8-10 weeks old) were treated with the indicated dose of BKAc-Puro (7, 20, 67, 200, and 400 mg/kg; n=3 in each treatment group). Body weight change during the treatment is expressed in percent change compared to the day of the first treatment. Arrows indicate the time points of treatment. Data represent mean values±s.d. (n=3).\nas §3"}, "ARH-77 cells": {"tested_on": "ARH-77 cells", "test": "Live single cell imaging by fluorescence microscopy, cell surface Puro", "type": "cell-based", "conditions": "20 μg/ml, 16 hr, anti-puro antibody (12D10) Alexa 647, fluorescence microscopy", "experimental": "Cell surface detection of Puro by anti-puro antibody (12D10) conjugated to Alexa 647 (EMD Millipore). ARH-77 cells were treated with Puro (0.25 μg/ml) or Boc-KAc-Puro (20 μg/ml) for 16 hr then harvested by centrifugation followed by two times wash using cold washing solution (0.1% BSA in PBS). Cells were resuspended in the same solution and incubated 30 min on ice with Alexa 647 conjugated mouse IgG2a anti-puromycin antibody (12D10). Cells were washed twice with the solution followed by fluorescence microscope analysis. The specificity of the antibody was confirmed by using isotype control antibody (mouse IgG2a conjugated with Alexa 647)."}},
  "data": [
    {"smiles": "COc1ccc(CC(NC(=O)C(CCCCNC(C)=O)NC(=O)OC(C)(C)C)C(=O)NC2C(O)[C@H](n3cnc4c(N(C)C)ncnc43)O[C@@H]2CO)cc1", "note": "(stereo partly drawn) [BKAc-Puro, N-[3′-(α-Amino-p-methoxyhydrocinnamamido)-3′-deoxy-N,N-dimethyldenosinyl)-N-α-(t-butoxycarbonyl]-N-ε-acetyl-L-lysineamide]", "values": [
      {"measurement": "Tumors developed at 200 mg/kg", "setting": "HCT116 xenograft tumor; 200 mg/kg, intraperitoneal, 2 weeks daily", "result": "no tumors greater than 300 mm^2 were observed"},
      {"measurement": "Tumor growth", "setting": "HCT116 xenograft tumor; 50 and 150 mg/kg/dose daily intraperitoneally for 10 d", "result": "dose-dependent inhibition of tumor growth"},
      {"measurement": "Tumor mass in comparison to acidified saline control", "setting": "HCT116 xenograft tumor; 50 and 150 mg/kg/dose, 10 d, P<0.001", "result": "significantly smaller tumor mass"},
      {"measurement": "Tumor incidence", "setting": "HCT116 xenograft tumor; intraperitoneal, 2 weeks of daily treatment", "result": "inhibition of tumor incidence"},
      {"measurement": "Tumor growth", "setting": "HCT116 xenograft tumor; intraperitoneal, treatment from tumors of 200 mm^3, DMSO vehicle control", "result": "inhibition of tumor growth"},
      {"measurement": "Intensity of Puro incorporation, tumors versus normal muscle and kidney", "setting": "[1]", "result": "substantially greater in tumors"},
      {"measurement": "Tolerability judged by weight loss", "setting": "[2]; 150 mg/kg/dose daily intraperitoneal for 10 d", "result": "well-tolerated"},
      {"measurement": "Toxicity", "setting": "[2]; 400 mg/kg, during and after 14 injections, HCT116 xenograft mice", "result": "No toxicity was observed"},
      {"measurement": "Toxicity", "setting": "[2]; tumor incidence study groups, daily intraperitoneal treatment", "result": "no toxicity was observed"},
      {"measurement": "Systemic toxicity, dose escalation", "setting": "[2]; up to 400 mg/kg, 5 consecutive daily injections, female nude mice", "result": "No severe systemic toxicity was observed"},
      {"measurement": "Puro presentation on cell surface proteins", "setting": "ARH-77 cells", "result": "confirmed"}
    ]}
  ]
}
